{
  "source": "patent US8647676B2",
  "about": "“Antimicrobial composition from copepods” (priority 2008, dated 2014)",
  "origin": "cited, not measured here",
  "conditions": "Iwamoto et al. Tetrahedron, 1999 vol. 55 p. 14353",
  "data": [
    {"substance": "penostatin", "values": [
      {"measurement": "cytotoxicity (in words)", "result": "mild cytotoxic"}
    ]}
  ]
}
